Columns and labels:
[1] = target: T1, EHMT1 (Homo sapiens, UniProt Q9H9B1); experiment: EHMT1 enzyme assay on peptide substrate (EHMT1 PEP); assay type: biochemical; conditions: Table III; read-out: EHMT1 PEP (IC50 μM)
T1 sequence (Q9H9B1 1-1298): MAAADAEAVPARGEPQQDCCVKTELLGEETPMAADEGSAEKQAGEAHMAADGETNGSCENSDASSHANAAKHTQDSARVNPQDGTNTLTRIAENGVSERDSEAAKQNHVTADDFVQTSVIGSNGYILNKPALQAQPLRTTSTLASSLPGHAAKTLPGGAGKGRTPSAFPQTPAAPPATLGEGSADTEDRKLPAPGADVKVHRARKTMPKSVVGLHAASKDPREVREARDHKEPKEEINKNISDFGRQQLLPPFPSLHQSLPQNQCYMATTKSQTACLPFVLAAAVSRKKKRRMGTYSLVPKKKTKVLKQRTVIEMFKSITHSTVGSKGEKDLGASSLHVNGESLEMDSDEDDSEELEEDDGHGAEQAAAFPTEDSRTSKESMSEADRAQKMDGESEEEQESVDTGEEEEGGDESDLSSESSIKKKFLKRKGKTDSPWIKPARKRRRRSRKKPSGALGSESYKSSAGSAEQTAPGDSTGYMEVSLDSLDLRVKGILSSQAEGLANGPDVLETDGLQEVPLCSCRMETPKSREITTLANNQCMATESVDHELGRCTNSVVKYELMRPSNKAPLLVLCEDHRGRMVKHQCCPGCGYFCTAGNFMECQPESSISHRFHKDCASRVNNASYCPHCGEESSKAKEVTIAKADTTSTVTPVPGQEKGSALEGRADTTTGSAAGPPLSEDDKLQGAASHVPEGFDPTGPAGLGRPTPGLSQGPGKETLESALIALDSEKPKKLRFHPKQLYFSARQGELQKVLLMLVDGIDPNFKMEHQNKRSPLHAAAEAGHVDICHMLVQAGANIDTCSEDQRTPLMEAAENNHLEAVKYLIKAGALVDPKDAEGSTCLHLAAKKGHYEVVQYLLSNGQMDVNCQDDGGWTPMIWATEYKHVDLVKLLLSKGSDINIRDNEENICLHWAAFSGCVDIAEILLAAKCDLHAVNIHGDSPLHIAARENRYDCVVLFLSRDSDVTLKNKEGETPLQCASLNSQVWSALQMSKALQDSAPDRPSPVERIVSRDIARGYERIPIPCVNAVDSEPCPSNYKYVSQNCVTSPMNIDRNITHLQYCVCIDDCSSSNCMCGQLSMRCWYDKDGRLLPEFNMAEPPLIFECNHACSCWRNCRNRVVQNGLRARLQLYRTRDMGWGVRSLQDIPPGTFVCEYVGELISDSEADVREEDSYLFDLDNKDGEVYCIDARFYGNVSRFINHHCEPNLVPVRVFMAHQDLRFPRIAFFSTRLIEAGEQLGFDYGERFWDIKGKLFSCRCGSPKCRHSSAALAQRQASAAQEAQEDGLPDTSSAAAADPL

[2] = target: T2, human EHMT2 913-1193 (Homo sapiens, UniProt Q96KQ7); experiment: EHMT2 enzyme assay on histone peptide substrate (EHMT2 PEP); assay type: biochemical; conditions: Table III; read-out: EHMT2 PEP (IC50 μM)
T2 construct: recombinant purified human EHMT2 913-1193, Viva; purchased Viva
T2 sequence (Q96KQ7 913-1193): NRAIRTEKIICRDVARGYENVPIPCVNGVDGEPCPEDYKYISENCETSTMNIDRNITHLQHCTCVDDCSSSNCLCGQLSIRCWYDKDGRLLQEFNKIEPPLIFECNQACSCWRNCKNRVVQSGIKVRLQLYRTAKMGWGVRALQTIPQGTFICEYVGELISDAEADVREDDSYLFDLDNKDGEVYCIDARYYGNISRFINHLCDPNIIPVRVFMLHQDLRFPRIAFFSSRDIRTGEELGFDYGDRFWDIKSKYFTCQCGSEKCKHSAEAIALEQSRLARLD
Procedure, shortened: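 Compounds were tested as 3-fold dilutions, 10 points from a 50 μM final top (2% DMSO), after 30-min preincubation with 0.031 nM enzyme in Bicine buffer pH 7.5. Transfer of ^3H-methyl from ^3H-SAM to biotinylated histone peptide ran 60 min at room temperature and was detected by streptavidin Flashplate scintillation.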

Structure (SMILES)	IC50 [1] [µM]	IC50 [2] [µM]
CNc1cc(C)nc(Nc2ccc(OC)c(O[C@H]3C[C@@H](N(C)C)C3)c2)n1 (single isomer, unassigned) [Compound 317, N^2-(3-((1s,3s)-3-(dimethylamino)cyclobutoxy)-4-methoxyphenyl)-N^4,6-dimethylpyrimidine-2,4-diamine]	> 10	1 to 10
CNc1ccnc(Nc2cccc(COCCN3CCCC3)n2)c1 [Compound 267, N^4-methyl-N^2-(6-((2-(pyrrolidin-1-yl)ethoxy)methyl)pyridin-2-yl)pyridine-2,4-diamine]	> 10	> 10
CNc1cc(Nc2cccc(COCCN3CCCC3)n2)ccn1 [Compound 268, N^2-methyl-N^4-(6-((2-(pyrrolidin-1-yl)ethoxy)methyl)pyridin-2-yl)pyridine-2,4-diamine]	> 10	> 10
CNc1nc(C2CCN(C)CC2)c2cc(OC)c(OCCCN3CCCC3)cc2n1 [Compound 270]	< 0.1	< 0.1
CNc1cc(Nc2ccc(OC)c(OCCCN3CCCC3)c2)ncc1F [Compound 272, 5-fluoro-N^2-(4-methoxy-3-(3-(pyrrolidin-1-yl)propoxy)phenyl)-N^4-methylpyridine-2,4-diamine]	1 to 10	0.1 to 1
CNc1cc(Nc2ccc(OC)c(OCCCN3CCCC3)c2)cc(C(F)(F)F)n1 [Compound 273]	> 10	> 10
CNc1ccnc(Nc2cccc(N3CCC(N)C3=O)c2)n1 (stereo not drawn) [Compound 274]	1 to 10	1 to 10
CNc1ccnc(Nc2cccc(N3CCC(N(C)C)C3=O)c2)n1 (stereo not drawn) [Compound 275]	> 10	> 10
CNc1ccnc(Nc2cccc(OCC(F)CN3CCCC3)c2)n1 (stereo not drawn) [Compound 276, N^2-(3-(2-fluoro-3-(pyrrolidin-1-yl)propoxy)phenyl)-N^4-methylpyrimidine-2,4-diamine]	1 to 10	> 10
CNc1ccnc(Nc2cccc(OCC(F)(F)CN3CCCC3)c2)n1 [Compound 277, N^2-(3-(2,2-difluoro-3-(pyrrolidin-1-yl)propoxy)phenyl)-N^4-methylpyrimidine-2,4-diamine]	> 10	> 10
COc1ccc(Nc2nccc(NCC3CC(C)(C)NC(C)(C)C3)n2)cc1OCCCN1CCCC1 [Compound 278]	< 0.1	< 0.1
CNc1ccnc(Nc2cccc(C(C)OCCN3CCCC3)c2)n1 (stereo not drawn) [Compound 279, N^4-methyl-N^2-(3-(1-(2-(pyrrolidin-1-yl)ethoxy)ethyl)phenyl) pyrimidine-2,4-diamine]	> 10	> 10
CNc1ccnc(Nc2ccc(OC)c(OCC3CCCN3C)c2)n1 (stereo not drawn) [Compound 289, N^2-(4-methoxy-3-((1-methylpyrrolidin-2-yl)methoxy)phenyl)-N^4-methylpyrimidine-2,4-diamine]	< 0.1	0.1 to 1
CCNC(=O)c1cc(Nc2nccc(NC)n2)ccn1 [Compound 291, N-ethyl-4-((4-(methylamino)pyrimidin-2-yl)amino)picolinamide]	> 10	> 10
CNc1ccnc(Nc2cccc3oc(CCN(C)C)nc23)n1 [Compound 295]	> 10	> 10
CNc1ccnc(Nc2cccc(N3CC(N)CC3=O)c2)n1 (stereo not drawn) [Compound 296]	> 10	> 10
CNc1ccnc(Nc2cccc(N3CCC(N)C3)c2)n1 (stereo not drawn) [Compound 297]	> 10	1 to 10
CNc1ccnc(Nc2ccc(OC)c(OC[C@H](O)CN3CCCC3)c2)n1 [Compound 299, (R)-1-(2-methoxy-5-((4-(methylamino)pyrimidin-2-yl)amino)phenoxy)-3-(pyrrolidin-1-yl)propan-2-ol]	< 0.1	< 0.1
CNc1ccnc(Nc2ccc(OC)c(OC[C@@H](O)CN3CCCC3)c2)n1 [Compound 300, (S)-1-(2-methoxy-5-((4-(methylamino)pyrimidin-2-yl)amino)phenoxy)-3-(pyrrolidin-1-yl)propan-2-ol]	0.1 to 1	0.1 to 1

Other lines, results leading:

IC50 [1] [µM]	IC50 [2] [µM]	Structure (SMILES)
> 10	> 10	CNc1ccnc(Nc2ccc(OC)c(OC[C@@H]3CN(C)C[C@H]3C)c2)n1 (single isomer, unassigned) [Compound 438]
0.1 to 1	0.1 to 1	CNc1ccnc(Nc2ccc(OC)c(OC[C@H]3CN(C)C[C@@H]3C)c2)n1 (single isomer, unassigned) [Compound 439]
0.1 to 1	1 to 10	CNc1ccnc(Nc2ccc(OC)c(OCCCN3CC[C@H](F)C3)c2)n1 [Compound 271]
1 to 10	1 to 10	CCN(CC)CCCOc1cc(Nc2nccc(NC)n2)ccc1OC [Compound 280, N^2-(3-(3-(diethylamino)propoxy)-4-methoxyphenyl)-N^4-methylpyrimidine-2,4-diamine]
> 10	> 10	CNc1ccnc(Nc2ccc(OC)c(OCCCN3CCC(S(C)(=O)=O)C3)c2)n1 (stereo not drawn) [Compound 282]
< 0.1	< 0.1	CNc1ccnc(Nc2ccc(OC)c(OCCCN3CCC(OC)C3)c2)n1 (stereo not drawn) [Compound 283, N^2-(4-methoxy-3-(3-(3-methoxypyrrolidin-1-yl)propoxy)phenyl)-N^4-methylpyrimidine-2,4-diamine]
> 10	> 10	CNc1ccnc(Nc2ccc(OC)c(OCCCN3CCC4(COC4)C3)c2)n1 [Compound 284]
> 10	> 10	CNc1ccnc(Nc2ccc(OC)c(OCCCN3CCC(C(F)(F)F)C3)c2)n1 (stereo not drawn) [Compound 285, N^2-(4-methoxy-3-(3-(3-(trifluoromethyl)pyrrolidin-1-yl)propoxy)phenyl)-N^4-methylpyrimidine-2,4-diamine]
0.1 to 1	< 0.1	CNc1ccnc(Nc2ccc(OC)c(OCCCN3CCC(O)C3)c2)n1 (stereo not drawn) [Compound 286, 1-(3-(2-methoxy-5-((4-(methylamino)pyrimidin-2-yl)amino)phenoxy)propyl)pyrrolidin-3-ol]
> 10	> 10	CNc1ccnc(Nc2ccc(OC)c(OCCCN3CCC(C#N)C3)c2)n1 (stereo not drawn) [Compound 287, 1-(3-(2-methoxy-5-((4-(methylamino)pyrimidin-2-yl)amino)phenoxy)propyl)pyrrolidine-3-carbonitrile]
0.1 to 1	0.1 to 1	CNc1ccnc(Nc2ccc(OC)c(OCCC3CCCN3C)c2)n1 (stereo not drawn) [Compound 288, N^2-(4-methoxy-3-(2-(1-methylpyrrolidin-2-yl)ethoxy)phenyl)-N^4-methylpyrimidine-2,4-diamine]
0.1 to 1	0.1 to 1	CNc1ccnc(Nc2ccc(OC)c(OCCCN3CCCC3C)c2)n1 (stereo not drawn) [Compound 290, N^2-(4-methoxy-3-(3-(2-methylpyrrolidin-1-yl)propoxy)phenyl)-N^4-methylpyrimidine-2,4-diamine]
0.1 to 1	1 to 10	CNc1ccnc(Nc2ccc(OC)c(OCCCN3CCC(C)C3)c2)n1 (stereo not drawn) [Compound 293, N^2-(4-methoxy-3-(3-(3-methylpyrrolidin-1-yl)propoxy)phenyl)-N^4-methylpyrimidine-2,4-diamine]
< 0.1	< 0.1	CNc1ccnc(Nc2ccc(OC)c(OCCCN3CC4CC4C3)c2)n1 (stereo not drawn) [Compound 298, N^2-(3-(3-(3-azabicyclo[3.1.0]hexan-3-yl)propoxy)-4-methoxyphenyl)-N^4-methylpyrimidine-2,4-diamine]

— patent publication US20210198277A1, “AMINE-SUBSTITUTED ARYL OR HETEROARYL COMPOUNDS” (Epizyme, Inc., priority 2016, published 2021)
